Test systems include A498; COLO 205; DU-145; HCC 2998; HOP-62; HT-29; Hs-578T; KM12; M14; MCF7; MDA-MB-435; NCI-H23; NCI/ADR-RES; OVCAR-3; OVCAR-4; OVCAR-5; SF-539; SK-MEL-2; SW-620; T47D.
Common to all, as to assay: growth of human tumour cells (NCI), 48 h

Consider ten compounds from ChEMBL document CHEMBL1201862, “PubChem BioAssay data set” (2004).

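In this assay, cells in 96-well plates receive the compound at five concentrations for 48 hours. Endpoints are linearly interpolated between the surrounding concentrations. GI50 marks 50% less growth.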 Active and inactive are the calls of the source. Cut-off read from the data, not from the text of the source: active = GI50 up to about 1.1 µM and inactive = higher.

For `Cn1c(-c2cccc(N)c2)[n+](C)c2ccccc21`, the GI50 with A498 was 22.4 µM (inactive); in the assay with COLO 205, 38.7 µM (inactive); in the assay on DU-145, > 100 µM (inactive); with HCC 2998 it was > 100 µM (inactive); in the assay on HOP-62, > 100 µM (inactive); in the assay with HT-29, > 100 µM (inactive). Moreover, the GI50 in the assay with Hs-578T was 64.6 µM (inactive); in the assay with KM12, > 100 µM (inactive); in the assay on M14, > 100 µM (inactive); with MCF7, > 100 µM (inactive); in the assay on MDA-MB-435, > 100 µM (inactive); in the assay with NCI-H23, 48.3 µM (inactive). The GI50 with NCI/ADR-RES, with OVCAR-3, in the assay with OVCAR-4, with OVCAR-5, in the assay with SF-539 and in the assay on SK-MEL-2 was > 100 µM (inactive) in each case. Further, the GI50 in the assay with SW-620 and in the assay on T47D was > 100 µM (inactive) throughout.
For `COc1c(C)c2nc3ccccc3nc2c2c(O)ccnc12`, the GI50 was 43.3 µM (inactive) with A498; 46.1 µM (inactive) with COLO 205; 34 µM (inactive) in the assay on DU-145; > 100 µM (inactive) with HCC 2998; 23.5 µM (inactive) in the assay with HOP-62; 69.7 µM (inactive) with HT-29. In addition, the GI50 with Hs-578T was 16 µM (inactive); in the assay with KM12, > 100 µM (inactive); in the assay on M14, > 100 µM (inactive); in the assay with MCF7, > 100 µM (inactive); in the assay on MDA-MB-435 it was > 100 µM (inactive); in the assay with NCI-H23 it was 55.6 µM (inactive). The GI50 in the assay with NCI/ADR-RES was > 100 µM (inactive); in the assay with OVCAR-3 it was > 100 µM (inactive); in the assay on OVCAR-4, > 100 µM (inactive); in the assay on OVCAR-5, > 100 µM (inactive); with SF-539, 54.2 µM (inactive); with SK-MEL-2, > 100 µM (inactive). Besides, the GI50 in the assay with SW-620 is > 100 µM (inactive); in the assay on T47D, 6.64 µM (inactive).
For `CC(C)=CCc1ccc2[nH]c3c(c2c1)C(=O)C(=O)C(C)=C3C(O)C(C)O` (stereo not given), the GI50 in the assay on A498 is 12.5 µM (inactive); in the assay on COLO 205, 2.16 µM (inactive); with DU-145 it was 10.5 µM (inactive); in the assay on HCC 2998 it was 6.38 µM (inactive); in the assay on HOP-62 it was 20.3 µM (inactive); in the assay on HT-29, 9.33 µM (inactive). In addition, the GI50 is 15.1 µM (inactive) with Hs-578T; 16.5 µM (inactive) in the assay on KM12; 1.91 µM (inactive) with M14; 1.63 µM (inactive) with MCF7; 2.85 µM (inactive) in the assay with MDA-MB-435; 5.4 µM (inactive) with NCI-H23. In addition, the GI50 is 15.1 µM (inactive) in the assay with NCI/ADR-RES; 2.96 µM (inactive) in the assay with OVCAR-3; 3.72 µM (inactive) with OVCAR-4; 18.4 µM (inactive) in the assay with OVCAR-5; 5.98 µM (inactive) in the assay on SF-539; 8.2 µM (inactive) in the assay with SK-MEL-2. The GI50 with SW-620 is 2.09 µM (inactive); in the assay on T47D, 2.29 µM (inactive).
In the case of `C/C(=N\NC(=N)N)C(CN(C)C)C(c1ccccc1)c1c(O)c2ccccc2oc1=O` (stereo not given), the GI50 with A498 is > 100 µM (inactive); with COLO 205, > 100 µM (inactive); in the assay with DU-145, > 100 µM (inactive); in the assay with HCC 2998, > 100 µM (inactive); in the assay with HOP-62 it was > 26.6 µM (inactive); in the assay on HT-29, > 100 µM (inactive). Besides, the GI50 in the assay on Hs-578T, with KM12, in the assay with M14, with MCF7, in the assay on MDA-MB-435 and in the assay on NCI-H23 was > 100 µM (inactive) in each case. For the same compound, the GI50 with NCI/ADR-RES, in the assay on OVCAR-3, in the assay with OVCAR-4, with OVCAR-5, with SF-539 and in the assay on SK-MEL-2 was > 100 µM (inactive) throughout. Moreover, the GI50 in the assay on SW-620 was > 100 µM (inactive); in the assay on T47D, 4.62 µM (inactive).
Regarding `CC(NNC(=O)c1cc[n+]([BH2-]C#N)cc1)c1ccccc1` (stereo not given), the GI50 in the assay with A498, with COLO 205, in the assay with DU-145, with HCC 2998, with HOP-62 and with HT-29 was > 100 µM (inactive) in each case. The GI50 with Hs-578T, in the assay on KM12, in the assay with M14, in the assay with MCF7, in the assay on MDA-MB-435 and in the assay with NCI-H23 was > 100 µM (inactive) each time. In addition, the GI50 with NCI/ADR-RES, in the assay with OVCAR-3, with OVCAR-4, in the assay on OVCAR-5, in the assay with SF-539 and in the assay with SK-MEL-2 was > 100 µM (inactive) in each case. Also, the GI50 with SW-620 and with T47D was > 100 µM (inactive) in each case.
With `CN(CCNC(=O)c1nn(-c2ccc(Cl)cc2Cl)c2c1Cc1ccccc1-2)CCNC(=O)c1nn(-c2ccc(Cl)cc2Cl)c2c1Cc1ccccc1-2`, the GI50 in the assay with A498 is 5.14 µM (inactive); with COLO 205, 1.81 µM (inactive); in the assay on DU-145 it was 4.69 µM (inactive); in the assay with HCC 2998 it was 1.75 µM (inactive); with HOP-62, 5.21 µM (inactive); in the assay with HT-29, 2.19 µM (inactive). Besides, the GI50 in the assay with Hs-578T was 1.53 µM (inactive); in the assay on KM12 it was 3.49 µM (inactive); in the assay on M14 it was 1.81 µM (inactive); in the assay with MCF7, 2.56 µM (inactive); in the assay with MDA-MB-435, 1.51 µM (inactive); in the assay with NCI-H23, 5.09 µM (inactive). The GI50 with NCI/ADR-RES is 3.39 µM (inactive); in the assay on OVCAR-3 it was 3.55 µM (inactive); in the assay with OVCAR-4, 2.1 µM (inactive); with OVCAR-5, 20 µM (inactive); with SF-539 it was 1.85 µM (inactive); in the assay with SK-MEL-2 it was 2.05 µM (inactive). For the same compound, the GI50 in the assay with SW-620 was 1.86 µM (inactive); in the assay on T47D, 3.77 µM (inactive).
On to `CCC(C)C(NC(=O)C(CCCCN)NC(=O)C(NC(=O)C(CCC(N)=O)NC(=O)C(CCCNC(=N)N)NC(C)=O)C(C)CC)C(=O)NC(Cc1c[nH]c2ccccc12)C(=O)NC(Cc1ccccc1)C(=O)NC(CCC(N)=O)C(=O)NC(CC(N)=O)C(=O)NC(CCCNC(=N)N)C(=O)NC(CCCNC(=N)N)C(=O)NC(CCSC)C(=O)NC(CCCCN)C(=O)NC(Cc1c[nH]c2ccccc12)C(=O)NC(CCCCN)C(=O)NC(CCCCN)C(N)=O` (stereo not given), for which the GI50 in the assay on A498 was > 50 µM (inactive); in the assay with COLO 205 it was 38.3 µM (inactive); in the assay with DU-145, > 50 µM (inactive); with HCC 2998, > 50 µM (inactive); in the assay with HOP-62, 39.6 µM (inactive); in the assay with HT-29, > 50 µM (inactive). The GI50 is > 50 µM (inactive) with Hs-578T; 14.5 µM (inactive) in the assay with KM12; 17.9 µM (inactive) with M14; 29.8 µM (inactive) in the assay on MCF7; 17.5 µM (inactive) in the assay with MDA-MB-435; > 50 µM (inactive) with NCI-H23. Moreover, the GI50 in the assay with NCI/ADR-RES is > 50 µM (inactive); with OVCAR-3 it was 31.1 µM (inactive); in the assay on OVCAR-4 it was > 50 µM (inactive); with OVCAR-5, 11.1 µM (inactive); in the assay on SF-539, 19.7 µM (inactive); in the assay on SK-MEL-2, > 50 µM (inactive). Also, the values for the GI50 in the assay on SW-620 and in the assay on T47D were > 50 µM (inactive) and 16.3 µM (inactive), respectively.
Consider `CC(=O)Oc1cccc2c(/C=N/NC(N)=S)ncc(C)c12`, for which the GI50 with A498 is 7.55 µM (inactive); in the assay on COLO 205, 3.4 µM (inactive); in the assay with DU-145, 0.347 µM (active); in the assay with HCC 2998, 0.818 µM (active); in the assay with HOP-62, 1.07 µM (active); in the assay on HT-29, 4.48 µM (inactive). Besides, the GI50 was 20.6 µM (inactive) in the assay with Hs-578T; 0.895 µM (active) in the assay on KM12; 0.753 µM (active) with M14; 0.603 µM (active) in the assay on MCF7; 4.29 µM (inactive) in the assay on MDA-MB-435; 0.746 µM (active) in the assay on NCI-H23. Further, the GI50 in the assay on NCI/ADR-RES is 1.01 µM (active); with OVCAR-3 it was 0.381 µM (active); in the assay on OVCAR-4, 7.41 µM (inactive); in the assay with OVCAR-5 it was 7.35 µM (inactive); in the assay on SF-539 it was 0.207 µM (active); in the assay with SK-MEL-2, 5.94 µM (inactive). Besides, the results for the GI50 in the assay on SW-620 and in the assay with T47D were 4.59 µM (inactive) and 1.47 µM (inactive), respectively.
`S=C(NCCc1ccccn1)N/N=C(\c1ccccc1)c1ccccn1`: the GI50 in the assay on A498 is 0.211 µM (active); in the assay with COLO 205 it was < 0.01 µM (active); in the assay on DU-145 it was 3.4 µM (inactive); in the assay with HCC 2998, 12.1 µM (inactive); in the assay on HOP-62, 1.77 µM (inactive); in the assay with HT-29 it was < 0.01 µM (active). The GI50 is 20.5 µM (inactive) in the assay on Hs-578T; 2.76 µM (inactive) with KM12; 0.0378 µM (active) in the assay with M14; < 0.01 µM (active) in the assay with MCF7; 5.86 µM (inactive) in the assay on MDA-MB-435; 0.125 µM (active) in the assay on NCI-H23. Also, the GI50 in the assay on NCI/ADR-RES was 0.0933 µM (active); in the assay with OVCAR-3 it was 0.0989 µM (active); in the assay on OVCAR-4, 3.01 µM (inactive); in the assay with OVCAR-5, 7.82 µM (inactive); in the assay on SF-539, 0.63 µM (active); in the assay on SK-MEL-2, 21.5 µM (inactive). Also, the GI50 in the assay on SW-620 was 0.0331 µM (active); in the assay with T47D, < 0.0444 µM (active).
In the case of `CCOC(=O)/C=C(/C(=O)OCC)n1ccc(=O)[nH]c1=O`, the GI50 in the assay on A498 was 20.6 µM (inactive); with COLO 205 it was 1.65 µM (inactive); in the assay on DU-145, 15.5 µM (inactive); with HCC 2998 it was 16.5 µM (inactive); in the assay on HOP-62, 19.6 µM (inactive); in the assay on HT-29, 10.9 µM (inactive). Moreover, the GI50 with Hs-578T is 17.9 µM (inactive); in the assay on KM12 it was 17.6 µM (inactive); with M14 it was 3.83 µM (inactive); in the assay with MCF7 it was 4.19 µM (inactive); in the assay on MDA-MB-435 it was 10.8 µM (inactive); in the assay with NCI-H23, 10.4 µM (inactive). Also, the GI50 is 15.5 µM (inactive) with NCI/ADR-RES; 3.59 µM (inactive) in the assay on OVCAR-3; 8.61 µM (inactive) in the assay on OVCAR-4; 5.93 µM (inactive) in the assay on OVCAR-5; 18.9 µM (inactive) in the assay with SF-539; 15.8 µM (inactive) with SK-MEL-2. For the same compound, the GI50 was 1.86 µM (inactive) with SW-620 and 3.4 µM (inactive) in the assay with T47D.
